According to PMC9188596, “Structural basis of resistance to herbicides that target acetohydroxyacid synthase” (Nature Communications, 2022):
Where two headings read alike, the source gives them in different places.

How the values were obtained:
AtAHAS P197L mutant = AtAHAS P197L mutant (Arabidopsis thaliana, UniProt P17597, P197L); assay: biochemical
Method: (§1) Standard assays were performed using a continuous spectrophotometric method measuring the disappearance of pyruvate. The standard buffer contained 50 mM potassium phosphate, pH 7.2, 1 mM ThDP, 10 mM MgCl2, and 10 µM FAD. The concentration of pyruvate was in the range 100–160 mM, as described in the text, methods, or figure legends.
(§2) Supplementary Figure 6. Measurement of the Ki values for WT AtAHAS and the mutants.
(§3) The error bars represent the standard error of the mean of two independent replicates. [I] =
(§4) inhibitor concentration. Source data are provided with this paper.
(§5) (1 picture or pasted object on this page, not shown here)

AtAHAS P197T mutant = AtAHAS P197T mutant (Arabidopsis thaliana, UniProt P17597, P197T); assay: biochemical
Method: as §1, §2, §3, §4, §5

AtAHAS S653T mutant = AtAHAS S653T mutant (Arabidopsis thaliana, UniProt P17597, S653T); assay: biochemical
Method: as §1, §2, §3, §4, §5

AtAHAS W574L mutant = AtAHAS W574L mutant (Arabidopsis thaliana, UniProt P17597, W574L); assay: biochemical
Method: as §1, §2, §3, §4, §5

WT AtAHAS [1] = biological target: T1, WT AtAHAS (Arabidopsis thaliana, UniProt P17597); conditions: ± standard error of the mean, ref Garcia et al.[13]; cited from earlier work
WT AtAHAS [2] = biological target: T1, WT AtAHAS; assay: Ki of herbicides, continuous spectrophotometric AHAS assay; assay type: biochemical
Method: as §1, §2, §3, §4, §5

[3] = Ki (Supplementary Figure 6), P197L, fit of % activity remaining vs [I], two independent replicates
[4] = Ki, P197L mutant, ± standard error of the mean
[5] = Ki (Supplementary Figure 6), P197T, fit of % activity remaining vs [I], two independent replicates
[6] = Ki, P197T mutant, ± standard error of the mean
[7] = Ki (Supplementary Figure 6), S653T, fit of % activity remaining vs [I], two independent replicates
[8] = Ki, S653T mutant, ± standard error of the mean
[9] = Ki, W574L mutant, ± standard error of the mean

## COc1cc(OC)nc(Sc2cccc(Cl)c2C(=O)O)n1 [PTB, pyrithiobac]
AtAHAS P197L mutant; [3]
  Ki: 1950 ± 194 nM
AtAHAS P197L mutant; [4]
  Ki: 2000 ± 200 nM
AtAHAS P197T mutant; [5]
  Ki: 1460 ± 282 nM
AtAHAS P197T mutant; [6]
  Ki: 1500 ± 300 nM
AtAHAS S653T mutant; [7]
  Ki: 218 ± 15.8 nM
AtAHAS S653T mutant; [8]
  Ki: 218 ± 15.8 nM
AtAHAS W574L mutant; Ki (Supplementary Figure 6), W574L, fit of % activity remaining vs [I], two independent replicates
  Ki: 91200 ± 8190 nM
AtAHAS W574L mutant; [9]
  Ki: 91200 ± 8200 nM
WT AtAHAS [1]
  Ki: 179 ± 12 nM

## COc1cc(OC)n2nc(S(=O)(=O)Nc3c(Cl)ccc(C)c3Cl)nc2n1 [MT, metosulam]
WT AtAHAS [2]; Ki (Supplementary Figure 6), Wild type AtAHAS, fit of % activity remaining vs [I], two independent replicates
  Ki: 28.7 ± 11.2 nM
WT AtAHAS [2]; Ki, WT AtAHAS, ± standard error of the mean
  Ki: 29 ± 11.2 nM
AtAHAS P197L mutant; [3]
  Ki: 1320 ± 131 nM
AtAHAS P197L mutant; [4]
  Ki: 1320 ± 130 nM
AtAHAS P197T mutant; [5]
  Ki: 1130 ± 130 nM
AtAHAS P197T mutant; [6]
  Ki: 1130 ± 130 nM
AtAHAS S653T mutant; [7]
  Ki: 66 ± 5.64 nM
AtAHAS S653T mutant; [8]
  Ki: 66 ± 5.6 nM
AtAHAS W574L mutant; [9]
  Ki: 39300 ± 3900 nM
